Reference: US11279726B2, “Norbornene-based amphipathic compound and utilization thereof” (Industry-University Cooperation Foundation Hanyang …, priority 2017, dated 2022)
“Also recorded” adds a separate entry of the source.

How the values were obtained:
[1] = Critical micelle concentration by fluorescent staining with diphenylhexatriene (DPH); assay type: physicochemical; conditions: aqueous solution
Method: A method for measuring CMC is not particularly limited, and a method widely known in the art may be used, for example, by fluorescence staining with diphenylhexatriene (DPH).
(§1) To identify the characteristics of NBMs synthesized in Preparation Example 1 to 6 according to the synthetic method of Example 1, molecular weights (MWs) of NBMs, critical micelle concentrations (CMCs) and hydrodynamic radii (Rh) of the micelles were measured.
(§2) Specifically, the critical micelle concentrations (CMCs) were measured by fluorescent staining with diphenylhexatriene (DPH), and the hydrodynamic radii (Rh) of the micelle formed with individual agents (1.0 wt %) were measured by dynamic light scattering (DLS).

[2] = Hydrodynamic radius / size distribution of micelles by dynamic light scattering (DLS); assay type: physicochemical; conditions: for Rh (nm), hydrodynamic radius of micelles: 1.0 wt % agent; for Micelle size change with temperature: temperature-dependent (FIGS. 7a, 7b)
Method: A method for measuring the radius of a micelle is not particularly limited, and a method well known in the art may be used, and for example, the radius thereof may be measured using a dynamic light scattering (DLS) experiment.
as §1, §2

[3] = molecular target: T1, uric acid-xanthine/H+ symporter (UapA) (Emericella nidulans, UniProt Q07307, G411V); assay: UapA extraction and thermal stability by fluorescence size exclusion chromatography (FSEC); design: species or system Aspergillus nidulans; conditions: 1.0 wt % amphiphile; for Retention of monodispersed UapA-GFP peak after heating (FSEC): 10 minutes at 40° C., compared with DDM
T1 construct: made in house; host or cells: Saccharomyces cerevisiae FGY217
T1 sequence (Q07307 12-574 G411V): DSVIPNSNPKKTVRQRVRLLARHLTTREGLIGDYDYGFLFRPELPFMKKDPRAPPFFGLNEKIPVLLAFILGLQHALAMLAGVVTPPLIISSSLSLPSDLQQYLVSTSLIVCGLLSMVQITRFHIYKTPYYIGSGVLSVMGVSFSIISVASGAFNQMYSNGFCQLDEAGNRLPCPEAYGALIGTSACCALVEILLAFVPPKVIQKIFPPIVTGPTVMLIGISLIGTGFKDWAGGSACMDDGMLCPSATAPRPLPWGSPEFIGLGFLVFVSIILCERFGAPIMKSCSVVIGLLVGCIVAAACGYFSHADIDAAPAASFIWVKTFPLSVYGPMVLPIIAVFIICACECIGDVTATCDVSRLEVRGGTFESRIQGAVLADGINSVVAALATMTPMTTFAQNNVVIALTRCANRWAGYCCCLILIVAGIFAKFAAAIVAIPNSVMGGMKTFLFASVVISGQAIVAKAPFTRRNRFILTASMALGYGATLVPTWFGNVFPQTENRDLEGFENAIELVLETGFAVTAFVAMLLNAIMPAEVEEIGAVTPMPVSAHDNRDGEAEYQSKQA
Method: An experiment for measuring the structural stability of uric acid-xanthine/H+ symporter (UapA) isolated from Aspergillus nidulans using NBMs was performed. The structural stability of UapA was evaluated using […].
Specifically, UapAG411VΔ1-11 (hereinafter, referred to as “UapA”) was expressed as GFP fusion in Saccharomyces cerevisiae FGY217 strain and isolated in a sample buffer (20 mM Tris (pH 7.5), 150 mM NaCl, 0.03% DDM, 0.6 mM xanthine) according to the method described in the literature written by J. Leung et al. (Mol. Membr. Biol. 2013, 30, 32-42). Membranes containing UapA were resuspended in PBS, 10 mM imidazole pH 8.0, 150 mM NaCl, 10% glycerol, and the protein concentration was measured. The membranes were adjusted to a concentration of 1 mg·ml^−1 and 1 ml aliquots were individually incubated with DDM or NBMs at a final amphiphilic material concentration of 1.0 wt % for 10 minutes at 40° C. 100 μl aliquots were removed from each tube, and a fluorescence reading was taken for each sample before and after ultracentrifugation at 150,000 g for 10 minutes to remove insoluble material. The remaining soluble fraction for each condition was submitted to fluorescent size exclusion chromatography (FSEC) using a Superose 6 column (GE Healthcare) equilibrated with DDM.

[4] = molecular target: T2, human β2 adrenergic receptor (β2AR) (Homo sapiens, UniProt P07550); assay: β2AR stability: [3H]-DHA ligand binding activity of solubilized receptor; conditions: 0.2% amphiphile, room temperature, 3 days (7 days for receptor extracted with the amphiphile)
T2 construct: made in house
T2 sequence (P07550 whole entry): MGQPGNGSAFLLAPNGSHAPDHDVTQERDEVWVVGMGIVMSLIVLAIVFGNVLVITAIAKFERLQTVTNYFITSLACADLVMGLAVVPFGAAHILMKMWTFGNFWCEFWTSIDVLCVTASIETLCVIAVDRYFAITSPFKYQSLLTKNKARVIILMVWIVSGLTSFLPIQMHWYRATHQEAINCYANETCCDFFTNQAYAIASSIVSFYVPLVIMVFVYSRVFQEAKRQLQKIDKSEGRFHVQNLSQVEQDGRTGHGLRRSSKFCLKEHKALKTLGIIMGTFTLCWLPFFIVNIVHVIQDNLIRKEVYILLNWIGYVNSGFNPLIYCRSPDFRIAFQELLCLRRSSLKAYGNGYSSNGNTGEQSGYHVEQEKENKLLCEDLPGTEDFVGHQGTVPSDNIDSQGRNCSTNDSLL
Method: An experiment of measuring the stability of human β2 adrenergic receptor (β2AR) and G-protein-coupled receptor (GPCR) for NBMs was carried out. That is, the receptor was extracted from the cell membranes by DDM and purified in the same amphiphilic compound. The DDM-purified receptor was diluted in individual DDM- or NBM-containing buffers to adjust the final compound concentration to be CMC+0.2 wt %. The receptor stability was assessed by measuring ligand binding activity using [3H]-DHA.
To measure long-term stability of human β2AR with NBMs (D-NBM-C11 and X-NBM-C11) showing an excellent ligand binding activity of the receptor in the previous experiment, a radio-labeled ligand binding experiment was performed by the following method. β2AR was purified using 0.1% DDM (D. M. Rosenbaum et al., Science, 2007, 318, 1266-1273), and finally concentrated to approximately 10 mg/ml (approximately 200 μM). A main binding mixture containing 10 nM [^3H]-DHA supplemented with 0.5 mg/ml BSA was prepared in 0.2% amphiphilic compound (DDM or NBMs (D-NBM-C11 and X-NBM-C11)) using β2AR purified with DDM. The receptor purified with DDM or NBMs was incubated with 10 nM [^3H]-DHA at room temperature for 30 minutes. The mixture was loaded onto a G-50 column, the fractions were collected in a 1 ml binding buffer (20 mM HEPES pH 7.5, 100 mM NaCl, containing 0.5 mg/ml BSA and 20× CMC individual amphiphilic compounds). In addition, each fraction was supplemented with a 15 ml scintillation fluid, and receptor-bound [^3H]-DHA was measured using a scintillation counter (Beckman) at regular intervals for 3 days. The binding capacity of [^3H]-DHA was shown as a bar chart (FIG. 11a).
In addition, β2AR was extracted from the membrane using 1.0 wt % of DDM or X-NBM-C11 and purified at 0.2 wt % for the same individual amphiphilic compounds. Structural stability of the receptor was assessed by ligand binding activity, which was measured with sample aliquots at regular intervals during 7-day incubation at room temperature. Each experiment was carried out in triplicate (FIG. 12b).

CCCCCCCCCCCOCC1C2CC([C@H]1COCCCCCCCCCCC)[C@H](O[C@@H]1OC(CO)[C@@H](O[C@H]3OC(CO)[C@@H](O)C(O)C3O)C(O)C1O)C2O[C@@H]1OC(CO)[C@@H](O[C@H]2OC(CO)[C@@H](O)C(O)C2O)C(O)C1O (stereo partly shown) [X-NBM-C11]
CMC [1]: ~0.006 mM
CMC (wt %) [1]: ~0.0007 wt %
Rh (nm), hydrodynamic radius of micelles [2]: 17.3 ± 0.10 nm
Micelle size change with temperature [2]: changed according to a temperature
UapA extraction efficiency from the cell membrane [3]: almost quantitatively extract
Retention of monodispersed UapA-GFP peak after heating (FSEC) [3]: substantially better than DDM
Long-term ligand binding activity of β2AR ([3H]-DHA) [4]: well retained; also recorded: highest ligand binding retention property

CCCCCCCCCCCOCC1C2CC([C@@H]1COCCCCCCCCCCC)[C@H](O[C@@H]1OC(CO)[C@@H](O[C@H]3OC(CO)[C@@H](O)C(O)C3O)C(O)C1O)C2O[C@@H]1OC(CO)[C@@H](O[C@H]2OC(CO)[C@@H](O)C(O)C2O)C(O)C1O (stereo partly drawn) [D-NBM-C11]
CMC [1]: ~0.007 mM
CMC (wt %) [1]: ~0.0008 wt %
Rh (nm), hydrodynamic radius of micelles [2]: 3.7 ± 0.05 nm
Micelle size change with temperature [2]: not influenced by a temperature change
Retention of monodispersed UapA-GFP peak after heating (FSEC) [3]: a little better than DDM
Long-term ligand binding activity of β2AR ([3H]-DHA) [4]: well retained
